Article PMC9848351, “Discovery of new pyridine-quinoline hybrids as competitive and non-competitive PIM-1 kinase inhibitors with apoptosis induction and caspase 3/7 activation capabilities” (Journal of Enzyme Inhibition and Medicinal Chemistry, 2023)

Tests used:
[1] = tested on: liver cancer cell line (HepG-2); assay: MTT anticancer activity, HepG-2; type: cell-based, human; details: for IC50: Homo sapiens, HepG2, HepG-2, 72 h, MTT, mean ± SEM; for activity against HepG-2 compared to the reference: fold versus doxorubicin IC50
Summary of the method: (§1)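 Cells seeded at 5x10^3/well (Caco-2 in DMEM, others in RPMI-1640, 10% FBS) and exposed to serial compound concentrations for 72 h at 37 °C, 5% CO2, starting 24 h after seeding. MTT (3 h, 37 °C) read at 570 nm after DMSO solubilisation; IC50 calculated from viability.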

[2] = tested on: prostate cancer cell line (PC-3); assay: MTT anticancer activity, PC-3; type: cell-based, human; details: Homo sapiens, 72 h, PC-3, 72 h, mean ± SEM
Summary of the method: as §1

[3] = tested on: myeloid leukaemia cell line (NFS-60); assay: MTT anticancer activity, NFS-60; type: cell-based; details: for IC50: NFS-60, 72 h, MTT, mean ± SEM; for activity against NFS-60 compared to the reference: fold versus doxorubicin IC50
Summary of the method: as §1

[4] = tested on: Caco-2; assay: Flow cytometric annexin V/PI analysis of apoptosis, Caco-2; type: cell-based; details: IC50 of compound, 72 h, mean ± SEM
Protocol: The apoptosis-dependent […] was determined by quantification of annexin-stained apoptotic cells using the FITC signal detector (FL1) against the phycoerythrin emission signal detector (FL2) (Supplementary Page S55). […]
MTT method was used for assaying cell viability 25. Twenty microliters of 5 mg/ml MTT (Sigma, USA) was added to each well and the plate was incubated at 37 °C for 3 h. Then MTT solution was removed, 100 µl DMSO was used and the absorbance of each well was measured with a microplate reader ( BMG LabTech, […]
Germany) at 570 nm. […]
Graphpad Instat software.
Determination of the anticancer activity
Anticancer effect of the above-mentioned compounds was evaluated using four human […]
cancer cell lines. […]
All cancer cells (5x10^3 cells/well) were seeded in sterile
96-well plates. After 24h, serial concentrations of the tested compounds and Dox were incubated with four cancer cell lines for 72 h at 37 °C in 5% CO2 incubator. MTT method was done as described above. The Graphpad Instat software was used for calculating the half maximal inhibitory concentration (IC50) values. […]
Flow cytometric analysis of apoptosis
Caco-2, PC-3 and NFS-60 cell lines. After trypsinization, the untreated and treated cells were incubated with annexin V/PI for 15 min. Then cells were fixed and incubated with streptavidin-fluorescein (5 µg/mL) for 15 min. The apoptosis-dependent anticancer effect was determined by quantification of annexin-stained apoptotic cells using the FITC signal detector (FL1) against the phycoerythrin emission signal detector (FL2). […]

[5] = target: T1, PIM-1 kinase (Homo sapiens, UniProt P11309); assay: Mechanism of PIM-1 kinase inhibition, Lineweaver–Burk double-reciprocal plot; type: biochemical; parameters: purchased Promega Corporation #V4032; details: for Vmax compared with control: Y-intercept
T1 sequence (P11309 whole entry): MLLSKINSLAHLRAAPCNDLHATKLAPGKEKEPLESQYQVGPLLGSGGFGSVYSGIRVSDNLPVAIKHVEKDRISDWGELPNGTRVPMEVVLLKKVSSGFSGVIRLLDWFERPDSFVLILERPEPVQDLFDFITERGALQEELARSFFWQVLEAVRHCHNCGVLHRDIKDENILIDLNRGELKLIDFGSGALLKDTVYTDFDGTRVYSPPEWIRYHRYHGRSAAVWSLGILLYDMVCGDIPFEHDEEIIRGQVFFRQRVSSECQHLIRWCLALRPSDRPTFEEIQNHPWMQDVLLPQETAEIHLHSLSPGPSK

[6] = target: PIM-2 kinase (Homo sapiens, UniProt Q9P1W9); assay: PIM-2 kinase inhibitory activity (Promega kinase assay kit)
Sequence of PIM-2 kinase (Q9P1W9 whole entry): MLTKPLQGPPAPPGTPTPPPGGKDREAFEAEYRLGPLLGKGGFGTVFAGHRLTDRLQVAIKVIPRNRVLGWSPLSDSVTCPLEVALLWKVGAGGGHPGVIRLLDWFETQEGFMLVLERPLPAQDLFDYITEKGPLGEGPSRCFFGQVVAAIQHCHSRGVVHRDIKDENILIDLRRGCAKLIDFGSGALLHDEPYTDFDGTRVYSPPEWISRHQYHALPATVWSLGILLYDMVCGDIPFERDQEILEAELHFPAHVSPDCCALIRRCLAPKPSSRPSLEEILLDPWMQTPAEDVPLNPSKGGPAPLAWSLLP

[7] = tested on: caspase 3/7 in HepG-2 cells; assay: Caspase 3/7 activation assay (Apo-ONE kit); type: cell-based, human; details: caspase 3/7, relative to untreated HepG2 cells; mean ± SEM
Text: The percentage of caspase 3/7 activation was quantified using the Apo-ONE ® caspase 3/7 kit following the manufacturer’s instructions[27] (Supplementary Page S56).
It’s a fluorescence assay that measures caspase-3 and −7 activities. Caspase 3/7 activators are well known as apoptotic inducers.
Caspase 3/7 activation assay
The Apo-ONE ® caspase 3/7 kit following the manufacturer’s instructions was used for quantifying the percentage of caspase 3/7 activation. The fluorescence substrate present in the kit was cut by caspases to produce fluorescence signal. This signal was measured by the fluorescence omega microplate reader (BMG LabTech, Germany) at 490 nm excitation and 520 nm emission.
Data were expressed as mean ± standard error of the mean (SEM). Statistical significance was estimated by the multiple comparisons Tukey post-hoc analysis of variance (ANOVA) using the SPSS16 program. When p < 0.05, the differences were marked as statistically significant.
PIM-1 and PIM-2 kinase inhibitory activity
PIM-1 and PIM-2 kinase utilizing PIM-1 and PIM-2 Kinase Assay Kit – Promega Corporation catalog #V4032, following the manufacturer’s instructions 26 […]
Information Classification: General

[8] = target: T1, PIM-1 kinase; assay: PIM-1 kinase inhibitory activity (Promega kinase assay kit)

Row | Compound | IC50 [1] | IC50 [2] | IC50 [3] | total percentage of the apoptotic cell population, Caco-2 [4] | mechanism of PIM-1 kinase inhibition [5] | Vmax compared with control [5] | IC50 [6] | Fold increase in caspase activity [7] | IC50 [8] | activity against HepG-2 compared to the reference [1] | activity against NFS-60 compared to the reference [3]
1 | N#Cc1c(-c2cc3cc(Cl)ccc3nc2N2CCOCC2)cc(-c2cccc(O)c2)[nH]c1=O [5b, 4-(6-Chloro-2-morpholin-4-yl-quinolin-3-yl)-6-(3-hydroxyphenyl)-2-oxo-1,2-dihydropyridine-3-carbonitrile] | 5.28 ± 0.1 nM | 26.1 ± 4 nM | 9.32 ± 4 nM | 44.045 ± 0.185% | competitive inhibitors | the same Vmax in comparison with control | 670 nM | – | – | – | –
2 | N#Cc1c(-c2cc3ccccc3[nH]c2=O)cc(-c2cccc(O)c2)nc1S [14a, 6-(3-Hydroxyphenyl)-2-mercapto-4-(2-oxo-1,2-dihydroquinolin-3-yl)pyridine-3-carbonitrile] | 12.7 nM | 16.8 ± 0.1 nM | 23.2 nM | 42.17 ± 0.82% | competitive inhibitors | the same Vmax in comparison with control | – | 1.86 ± 0.11 fold | 385 nM | – | –
3 | COc1ccc2[nH]c(=O)c(-c3cc(-c4cccc(O)c4)[nH]c(=O)c3C#N)cc2c1 [13c, 6-(3-Hydroxyphenyl)-4-(6-methoxy-2-oxo-1,2-dihydroquinolin-3-yl)-2-oxo-1,2-dihydropyridine-3-carbonitrile] | 3.77 ± 0.1 nM | 22.5 ± 2 nM | 8.8 ± 0.1 nM | 51.17 ± 0.33% | – | – | – | – | 7780 nM | thirteen-fold high | three-fold high
4 | N#Cc1c(-c2cc3ccccc3[nH]c2=O)cc(-c2cccc(O)c2)[nH]c1=O [13a, 6-(3-Hydroxyphenyl)-2-oxo-4-(2-oxo-1,2-dihydroquinolin-3-yl)-1,2-dihydropyridine-3-carbonitrile] | 2.38 nM | 20 ± 3 nM | 9 nM | 58.28 ± 0.26% | both competitive and non-competitive inhibitor | reduced in Vmax value | – | – | 1270 nM | twenty-one-fold more active | three-fold
5 | COc1ccc2nc(N3CCOCC3)c(-c3cc(-c4cccc(O)c4)[nH]c(=O)c3C#N)cc2c1 [5c, 6-(3-Hydroxyphenyl)-4-(6-methoxy-2-morpholin-4-yl-quinolin-3-yl)-2-oxo-1,2-dihydropyridine-3-carbonitrile] | 7.6 ± 0.1 nM | 27.2 ± 3 nM | 18.1 ± 1 nM | 33.89 ± 0.175% | competitive inhibitors | the same Vmax in comparison with control | 1660 nM | – | – | – | –
